Here are results for 28 molecules from patent publication US20220298115A1, “SMALL MOLECULE INHIBITORS OF ACETYL COENZYME A SYNTHETASE SHORT CHAIN 2 (ACSS2)” (Curadev Pharma Pvt. Ltd., priority 2019, published 2022).

For one experiment, the target named is T1, human ACSS2 (Homo sapiens, UniProt Q9NR19).
T1 construct: The cytosolic fraction of BT474 cells was used as a source of the ACSS2 enzyme; endogenous in cells; host or cells: BT474 cells (cytosolic fraction)
The experiment can be described thus: ACSS2 enzyme assay (acetyl-CoA formation, LC-MS/MS). It counts as biochemical. The settings on record: cytosolic fraction of BT474 cells as ACSS2 source; 100 μM acetate, CoA and ATP; 2 h at 25° C.; read-out: Enzyme Activity (IC50 range). The procedure: Novel compounds were screened in a human ACSS2 enzyme assay. Briefly, the ACSS2 enzyme reaction was monitored by directly measuring acetyl-CoA formation. The cytosolic fraction of BT474 cells was used as a source of the ACSS2 enzyme. A short protocol for this assay is provided below.
Preparation of Cytosolic Fraction from BT474 Cells
9×10^6 cells were harvested by trypsinization followed by centrifugation. The cell pellet was washed with PBS and dissolved in 500 μl STM buffer (50 mM Tris-HCl pH7.4, 250 mM sucrose, 5 mM MgCl2 & protease-phosphatase inhibitor cocktail) and homogenized at 600-1000 rpm for 1 min. on ice followed by incubation for 30 min. with intermittent vortexing. Supernatant was collected by centrifugation at 800 g for 15 min. at 4° C. Cytosolic fraction was prepared by further centrifugation of the supernatant at 12000 g for 15 min. at 4° C. Total protein content of the cytosolic fraction was estimated & diluted to 1 mg/ml concentration in storage buffer (25 mM Tris-HCl pH7.4, 1 mM MgCl2, 1 mM DTT & 10% glycerol) and stored at −80° C. for further use.
100 ng of cytosolic fraction in buffer composed of 25 mM Tris-HCl pH7.4 1 mM MgCl2, 1 mM DTT & 0.05% Tween20 was preincubated with desired concentrations of novel compounds for 5 min. maintaining 1% DMSO. Reaction was started with addition of substrate mix (100 μM of acetate, CoA and ATP) and incubated for 2 h at 25° C. with constant shaking at 500 rpm. Post incubation the reaction was terminated by addition of 10% TCA followed by 5 fold dilution in water. The reaction mixture was centrifuged at 800 g for 10 min. at RT and acetyl-CoA detected in supernatant by LC-MS/MS (QTrap5500 ABSCIEX).

Experiment [1] has as its system [14C] acetate incorporation in macromolecules, BT474 cells. Kind of experiment: Cell based [14C] acetate incorporation assay. The settings on record: Homo sapiens, BT-474, 3 h at 37° C., read-out: Cellular Activity (IC50 range). The procedure: Cell Based [^14C] Acetate Incorporation Assay
In the cellular assay, ACSS2 inhibitors were screened against [^14C] acetate incorporation in macromolecules. 4×10^4 BT474 cells were plated in 96 well plates in growth media composed of DMEM & 10% FBS and incubated overnight in a 37° C., 5% CO2 incubator. The following day the cells were washed in HBSS and the assay was performed in 100 μl of HBSS. 50 μl of 4× compound in 4% DMSO was added to the cells and preincubated for 10 min. at 37° C. 50 μl of acetate solution (0.1 μCi ^14C acetate+10 μM ^12C acetate) was added to each well of the plate and incubated for 3 h in a 37° C., 5% CO2 incubator. Following incubation, cells were harvested with water on polyethylene imine (PEI) presoaked GF/C filtermat, air dried and radioactive count were recorded in Trilux micro beta Liquid Scintillation Counter (PerkinElmer).

Bounds are passed on as bounds.

T1 sequence (Q9NR19 whole entry): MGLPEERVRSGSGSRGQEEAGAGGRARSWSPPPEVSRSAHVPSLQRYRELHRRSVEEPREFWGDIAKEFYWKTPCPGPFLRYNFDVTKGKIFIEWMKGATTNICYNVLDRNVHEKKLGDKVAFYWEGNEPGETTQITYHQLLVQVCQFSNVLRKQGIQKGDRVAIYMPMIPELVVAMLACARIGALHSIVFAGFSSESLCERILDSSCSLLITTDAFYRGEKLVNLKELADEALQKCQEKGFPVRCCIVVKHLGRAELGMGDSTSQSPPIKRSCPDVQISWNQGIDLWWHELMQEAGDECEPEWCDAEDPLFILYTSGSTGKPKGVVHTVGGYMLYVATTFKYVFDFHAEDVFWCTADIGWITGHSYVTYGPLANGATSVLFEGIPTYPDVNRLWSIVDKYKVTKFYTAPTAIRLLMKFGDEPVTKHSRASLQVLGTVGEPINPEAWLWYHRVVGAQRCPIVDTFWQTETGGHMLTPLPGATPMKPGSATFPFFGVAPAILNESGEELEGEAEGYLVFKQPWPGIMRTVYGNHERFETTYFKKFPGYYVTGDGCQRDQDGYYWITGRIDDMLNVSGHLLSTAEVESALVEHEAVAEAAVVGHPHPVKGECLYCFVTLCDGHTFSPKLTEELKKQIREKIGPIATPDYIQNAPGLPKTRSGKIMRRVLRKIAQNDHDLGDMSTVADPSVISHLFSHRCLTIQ

On to `CCC(O)CNC(=O)Nc1ccc2nc(-c3ccnc(O)c3)c(-c3ccnc(O)c3)cc2c1` (centres unmarked) [Example 29, 1-(2,3-bis(2-hydroxypyridin-4-yl)quinolin-6-yl)-3-(2-hydroxybutyl) urea], for which the half-inhibitory concentration (IC50) (at human ACSS2; in experiment [1]) was above 10000 nM in each case.

Turning to `CC[C@H](O)CNC(=O)Nc1ccc2nc(-c3ccccc3)c(-c3ccccc3)cc2c1` [Example 30, (S)-1-(2,3-diphenylquinolin-6-yl)-3-(2-hydroxybutyl) urea], the concentration for half-maximal inhibition (IC50) (at human ACSS2; in experiment [1]) was below 100 nM each time.

On to `CCC(O)CNC(=O)Nc1ccc2nc(-c3cccnc3)c(-c3ccccc3F)cc2c1` (centres unmarked) [Example 31, 1-(3-(2-fluorophenyl)-2-(pyridin-3-yl)quinolin-6-yl)-3-(2-hydroxybutyl) urea], for which the IC50 (on human ACSS2; in experiment [1]) was below 100 nM throughout.

Consider `CCC(O)CNC(=O)Nc1ccc2nc(C3=CCCCC3)c(-c3ccccc3F)cc2c1` (centres unmarked) [Example 32, 1-(2-(cyclohex-1-en-1-yl)-3-(2-fluorophenyl)quinolin-6-yl)-3-(2-hydroxybutyl) urea], for which the half-maximal inhibitory concentration (IC50) (at human ACSS2; in experiment [1]) was at most 1000 nM throughout.

With `CCC(O)CNC(=O)Nc1ccc2nc(-c3ccccc3N(C)C)c(-c3ccccc3F)cc2c1` (centres unmarked) [Example 33, 1-(2-(2-(dimethylamino)phenyl)-3-(2-fluorophenyl)quinolin-6-yl)-3-(2-hydroxybutyl) urea], the concentration for half-maximal inhibition (IC50) (on human ACSS2; in experiment [1]) was below 100 nM in each case.

As to `CCC(O)CNC(=O)Nc1ccc2nc(-c3ccncc3)c(-c3ccccc3F)cc2c1` (centres unmarked) [Example 34, 1-(3-(2-fluorophenyl)-2-(pyridin-4-yl)quinolin-6-yl)-3-(2-hydroxybutyl) urea], the IC50 (at human ACSS2; in experiment [1]) was below 100 nM throughout.

In the case of `CC[C@@H](O)CNC(=O)Nc1ccc2nc(-c3ccccc3OC)c(-c3ccccc3F)cc2c1` [Example 35, (R)-1-(3-(2-fluorophenyl)-2-(2-methoxyphenyl)quinolin-6-yl)-3-(2-hydroxybutyl) urea], the 50% inhibitory concentration (IC50) (at human ACSS2; in experiment [1]) was below 100 nM each time.

Consider `CC[C@H](O)CNC(=O)Nc1ccc2nc(-c3ccccc3OC)c(-c3ccccc3F)cc2c1` [Example 36, (S)-1-(3-(2-fluorophenyl)-2-(2-methoxyphenyl)quinolin-6-yl)-3-(2-hydroxybutyl) urea], for which the half-inhibitory concentration (IC50) (on human ACSS2; in experiment [1]) was below 100 nM throughout.

Consider `CCCCNC(=O)Nc1ccc2nc(-c3ccccc3OC)c(-c3ccccc3F)cc2c1` [Example 37, 1-butyl-3-(3-(2-fluorophenyl)-2-(2-methoxyphenyl)quinolin-6-yl)urea], for which the IC50 (on human ACSS2; in experiment [1]) was below 100 nM throughout.

Regarding `CCC(O)CNC(=O)Nc1ccc2nc(-c3ccccn3)c(-c3ccccc3)cc2c1` (centres unmarked) [Example 38, 1-(2-hydroxybutyl)-3-(3-phenyl-2-(pyridin-2-yl)quinolin-6-yl)urea], the half-inhibitory concentration (IC50) at human ACSS2 was below 100 nM; in experiment [1], at most 1000 nM.

For the molecule `CCC(O)CNC(=O)Nc1ccc2nc(C3CCCCC3)c(-c3ccccc3F)cc2c1` (centres unmarked) [Example 39, 1-(2-cyclohexyl-3-(2-fluorophenyl)quinolin-6-yl)-3-(2-hydroxybutyl) urea], the half-inhibitory concentration (IC50) at human ACSS2 is above 10000 nM; in experiment [1] it was at most 10000 nM.

In the case of `CCC(O)CNC(=O)Nc1ccc2nc(C3CC3)c(-c3ccccc3)cc2c1` (centres unmarked) [Example 40, 1-(2-cyclopropyl-3-phenylquinolin-6-yl)-3-(2-hydroxybutyl) urea], the IC50 at human ACSS2 is at most 1000 nM; in experiment [1] it was at most 10000 nM.

For the molecule `CCC(O)CNC(=O)Nc1ccc2nc(-c3cccnc3)c(-c3ccccc3)cc2c1` (centres unmarked) [Example 41, 1-(2-hydroxybutyl)-3-(3-phenyl-2-(pyridin-3-yl)quinolin-6-yl)urea], the IC50 (at human ACSS2; in experiment [1]) was below 100 nM each time.

As for `CCC(O)CNC(=O)Nc1ccc2nc(-c3cccnc3O)c(-c3cccnc3O)cc2c1` (centres unmarked) [Example 42, 1-(2,3-bis(2-hydroxypyridin-3-yl)quinolin-6-yl)-3-(2-hydroxybutyl) urea], the concentration for half-maximal inhibition (IC50) (on human ACSS2; in experiment [1]) was above 10000 nM each time.

As to `CCC(O)CNC(=O)Nc1ccc2nc(-c3cnn(C)c3)c(-c3ccccc3)cc2c1` (centres unmarked) [Example 43, 1-(2-hydroxybutyl)-3-(2-(1-methyl-1H-pyrazol-4-yl)-3-phenylquinolin-6-yl)urea], the IC50 on human ACSS2 was below 100 nM; in experiment [1] it was at most 1000 nM.

As for `CCC(CNC(=O)Nc1ccc2nc(-c3ccccc3)c(-c3ccccc3F)cc2c1)OC` (centres unmarked) [Example 44, 1-(3-(2-fluorophenyl)-2-phenylquinolin-6-yl)-3-(2-methoxybutyl) urea], the IC50 (at human ACSS2; in experiment [1]) was below 100 nM throughout.

On to `CCC(F)(F)CNC(=O)Nc1ccc2nc(-c3ccccc3)c(-c3ccccc3F)cc2c1` [Example 45, 1-(2,2-Difluorobutyl)-3-(3-(2-fluorophenyl)-2-phenylquinolin-6-yl)urea], for which the 50% inhibitory concentration (IC50) (on human ACSS2; in experiment [1]) was below 100 nM each time.

With `CCC(O)CNC(=O)Nc1ccc2nc(-c3cccc(F)c3)c(-c3ccccc3F)cc2c1` (centres unmarked) [Example 46, 1-(3-(2-fluorophenyl)-2-(3-fluorophenyl)quinolin-6-yl)-3-(2-hydroxybutyl) urea], the IC50 (at human ACSS2; in experiment [1]) was below 100 nM throughout.

`CCC(O)CNC(=O)Nc1ccc2nc(-c3ccc(F)cc3)c(-c3ccccc3F)cc2c1` (centres unmarked) [Example 47, 1-(3-(2-fluorophenyl)-2-(4-fluorophenyl)quinolin-6-yl)-3-(2-hydroxybutyl) urea]: the IC50 (at human ACSS2; in experiment [1]) was below 100 nM each time.

In the case of `CCC(O)CNC(=O)Nc1ccc2nc(-c3ccccc3)c(-c3ccccc3)c(C(=O)OC)c2c1` (centres unmarked) [Example 48, methyl 6-(3-(2-hydroxybutyl)ureido)-2,3-diphenylquino-line-4-carboxylate], the IC50 (on human ACSS2; in experiment [1]) was below 100 nM each time.

Take `CCC(O)CNC(=O)Nc1ccc2nc(-c3ccccc3)c(-c3ccccc3)c(C(N)=O)c2c1` (centres unmarked) [Example 49, 6-(3-(2-hydroxybutyl)ureido)-2,3-diphenylquino-line-4-carboxamide]: the 50% inhibitory concentration (IC50) (at human ACSS2; in experiment [1]) was below 100 nM in each case.

Turning to `CCC(O)CNC(=O)Nc1ccc2nc(/C=C/c3ccccc3)c(-c3ccccc3)cc2c1` (centres unmarked) [Example 50, (E)-1-(2-hydroxybutyl)-3-(3-phenyl-2-styrylquinolin-6-yl)urea], the figures for the IC50 (on human ACSS2; in experiment [1]) were at most 10000 nM and above 10000 nM, respectively.

Consider `CCC(O)CNC(=O)Nc1ccc2nc(-c3ccccc3NC(C)=O)c(-c3ccccc3F)cc2c1` (centres unmarked) [Example 51, N-(2-(3-(2-fluorophenyl)-6-(3-(2-hydroxybutyl)ureido)quinolin-2-yl)phenyl)acet-amide], for which the IC50 (on human ACSS2; in experiment [1]) was below 100 nM in each case.

On to `CCC(O)CNC(=O)Nc1ccc2nc(C)c(-c3ccccc3)cc2c1` (centres unmarked) [Example 52, 1-(2-hydroxybutyl)-3-(2-methyl-3-phenylquinolin-6-yl)urea], for which the half-inhibitory concentration (IC50) (at human ACSS2; in experiment [1]) was below 100 nM each time.

With `CCC(O)CNC(=O)Nc1ccc2nc(-c3ccccc3C#N)c(-c3ccccc3F)cc2c1` (centres unmarked) [Example 53, 1-(2-(2-cyanophenyl)-3-(2-fluorophenyl)quinolin-6-yl)-3-(2-hydroxybutyl) urea], the IC50 at human ACSS2 was below 100 nM; in experiment [1] it was at most 1000 nM.

Turning to `CCC(O)CNC(=O)Nc1ccc2nc(-c3ccccc3N)c(-c3ccccc3F)cc2c1` (centres unmarked) [Example 54, 1-(2-(2-aminophenyl)-3-(2-fluorophenyl)quinolin-6-yl)-3-(2-hydroxybutyl) urea], the IC50 (on human ACSS2; in experiment [1]) was below 100 nM in each case.

Take `CCC(O)CNC(=O)Nc1ccc2nc(-c3ccc(-c4ccccc4)cc3)c(-c3ccccc3)cc2c1` (centres unmarked) [Example 55, 1-(2-([1,1′-biphenyl]-4-yl)-3-phenylquinolin-6-yl)-3-(2-hydroxybutyl) urea]: the IC50 was at most 10000 nM on human ACSS2 and above 10000 nM in experiment [1].

Consider `CCC(O)CNC(=O)Nc1ccc2nc(CCc3ccccc3)c(-c3ccccc3)cc2c1` (centres unmarked) [Example 56, 1-(2-hydroxybutyl)-3-(2-phenethyl-3-phenylquinolin-6-yl)urea], for which the IC50 (on human ACSS2; in experiment [1]) was at most 10000 nM throughout.

Usually IC50 stands for the concentration needed to halve the response being measured.
